These are literature values, as cited in US9763983B2, “Natural killer cells from placenta” (ANTHROGENESIS CORPORATION, priority 2013, dated 2017).

Each structure is given as a SMILES string.

For this data set the following is noted: disclosed in US 2005/0096351 A1; for hygroscopicity: polymorphic form.

Take `Nc1cccc2c1CN(C1CCC(=O)NC1=O)C2=O` (stereo not shown) [Form A, 3-(4-amino-1-oxo-1,3 dihydro-isoindol-2-yl)-piperidene-2,6-dione]: the “stability / interconversion of polymorphic form” value (“stability / interconversion” for short) is on record as “most thermodynamically stable anhydrous polymorph” and the hygroscopicity result was “weakly or not hygroscopic”.
Regarding `Nc1cccc2c1CN(C1CCC(=O)NC1=O)C2=O` (stereo not shown) [Form B, 3-(4-amino-1-oxo-1,3 dihydro-isoindol-2-yl)-piperidene-2,6-dione], the “stability / interconversion” value is listed as “converts to Form E in aqueous solvent systems”.
With `Nc1cccc2c1CN(C1CCC(=O)NC1=O)C2=O` (stereo not shown) [Form C, 3-(4-amino-1-oxo-1,3 dihydro-isoindol-2-yl)-piperidene-2,6-dione], the “stability / interconversion” value was “can convert to Form B at higher relative humidities” and the hygroscopicity entry is given as “not hygroscopic below about 85% RH”.
Turning to `Nc1cccc2c1CN(C1CCC(=O)NC1=O)C2=O` (stereo not shown) [Form D, 3-(4-amino-1-oxo-1,3 dihydro-isoindol-2-yl)-piperidene-2,6-dione], the “stability / interconversion” value is “convert to Form B when stressed at higher relative humidities” and the hygroscopicity entry is “either weakly or not hygroscopic”.
